From publication PMC12692147, “Surface Acoustic Waves-Based Molecular Recognition of a Collagen Receptor on Human Erythrocytes” (International Journal of Molecular Sciences, 2025)
Entries after “also recorded” stand apart in the source; their conditions may differ.

How the values were obtained:
[1] = molecular target: integrins in an immobilized erythrocyte ghost membrane; test: SAW biosensor binding of disintegrins to immobilized erythrocyte ghosts; parameters: species or system human; conditions: for Kd / kon / koff: SAW (sam-X), erythrocyte ghosts immobilized via hydrophobic interactions (CH3-SAM), running buffer PBS pH 7.4, 25 °C, 20 μL/min, 1:1 binding model, experiments in triplicate; for Kd: KD = koff/kon; for kon: slope of kobs vs c, kobs of five channels averaged; for koff: y-intercept of kobs vs c; for KD (range in words): SAW, erythrocyte ghost membrane; for KD (range in words) / phase response on erythrocyte ghosts vs. unspecific binding to GUVs: result in words; for specificity of binding to erythrocyte ghost membrane: authors' conclusion in words; for phase response on erythrocyte ghosts vs. unspecific binding to GUVs: titration with increasing concentrations of disintegrins, GUVs (bovine brain phospholipids) on a parallel channel
Method: To detect disintegrin/erythrocyte ghost binding at the molecular level, a surface acoustic wave (SAW) biosensor was used (Figure 1). The machines of SAW instruments use a detection technology resembling a highly sensitive “weight detector”. Binding processes are measured by real mass changes on the surface. Basically, the sensor is a chip, whereby the surface is excited to oscillate acoustically. Acoustic waves are generated in the piezoelectric material and propagate laterally. Response to changes in the surface-bound material and configuration is achieved through a proprietary method that produces a modified oscillation. […] The phase of the wave is shifted on mass changes. A change in amplitude indicates viscoelastic and conformational characteristics. Both effects can be differentiated and detected independently for interaction analysis.
A similar amount of erythrocyte ghosts and GUVs were successfully immobilized on (1) positively poly-L-lysin charged 2D CM-dextran, (2) EDC/NHS-activated, negatively charged 2D CM-dextran, and (3) hydrophobic–CH3-SAM. The positively charged disintegrins were repelled from all charged surfaces; therefore, immobilization via hydrophobic interactions was chosen for the main core of experiments (Figure 2). Disintegrins were diluted in PBS to achieve similar immobilization levels; in a pre-experiment, all ligands were diluted 1:3, and then dilutions were adjusted. Experiments were performed in triplicate, starting with obtustatin, then echistatin, then vice versa. The baseline was stable; at immobilization of GUVs on a chip, a 14° phase shift was detected vs. 13.1° for the erythrocyte ghosts. In this set of experiments, GUVs formed from the phospholipid fraction of the bovine brain were used as a negative control for erythrocyte ghosts.
Based on the 1:1 binding model, a KD value was calculated depending on the fit model applied for the interaction of disintegrins with integrins in the erythrocyte ghosts. Data were obtained from sensor signals after the administration of increasing concentrations of disintegrins using the monomolecular growth model. The observed rate constants (kobs) were determined from the rising phase of the sensor response curves for each analyte concentration and plotted against the corresponding disintegrin concentrations. A linear regression was performed on the dataset according to the equationkobs = kon × c + koff where kon represents the association rate constant, koff is the dissociation rate constant, and c is the concentration of the injected analyte (see Figure 3C,D).
Erythrocyte membranes were obtained by the method of Dodge, Mitchell & Hanahan, as described. To obtain erythrocyte ghosts, after the last wash the RBC pellet was mixed with nine volumes of ice-cold lysis buffer (5 mM sodium phosphate) and stirred for 15 min at 0 °C. Subsequently, the unsealed erythrocyte ghosts were pelleted by centrifugation at 37,000× g for 10 min at 0 °C. After the centrifugation the ghosts were washed with ice-cold lysis buffer until residual hemoglobin was not visible. The RBC ghosts were suspended in about 0.5 volume of PBS and were kept frozen at −30 °C until use.
Biosensor investigations were performed using a sam®-X system Surface Acoustic Wave biosensor supplied by SAW instruments (GmbH, Bonn, Germany), as described before. Gold-coated sensors were incubated in a solution of 11-mercaptoundecanoic acid (10 mM) in ethanol abs. forming a self-assembled monolayer by binding of the sulfur headgroups to the gold surface ([…]). The carboxyl groups were activated with 200 mM N-ethyl-N-(dimethylaminopropyl)-carbodiimide (EDC) and 50 mM N-hydroxysuccinimide (NHS) to bind disintegrins and/or vesicles. An excess of activated unreacted NHS esters was blocked by 1 M ethanolamine (pH 8.5). Running buffer was PBS containing 2.7 mM potassium chloride and 137 mM sodium chloride (pH 7.4 at 25 °C); flow rate was 40/20 μL/min. […]

α1β1 integrin = conditions: cited from earlier work
From the text: (§1) Integrin-mediated binding is important for the metastatic dissemination of different types of cancer cells. […] Obtustatin is one of the shortest disintegrins yet described, containing 41 amino acids. It has a similar pattern of cysteines to the other disintegrin echistatin but with a KTS motif rather than a classic RGD in its active site. […] Echistatin is a 49-amino-acid peptide belonging to the disintegrins family derived from Echis carinatus snake venom. […] Obtustatin, comprising only 41 amino acid residues, is one of the shortest disintegrins characterized to date. It was purified from the venom of the Subcaucasian subspecies of the Levantine viper—Macrovipera ...

αVβ3 integrin = conditions: cited from earlier work
From the text: as §1

[2] = system: platelet aggregation and cellular adhesion; conditions: background statement; ref [14] (preceding sentence); cited from earlier work
From the text: Disintegrins are the large family of anti-adhesive proteins found in viper venom, whose structural and functional complexity contrasts with their small molecular size. Echistatin is a 49-amino-acid peptide belonging to the disintegrins family derived from Echis carinatus snake venom. […] Obtustatin, comprising only 41 amino acid residues, is one of the shortest disintegrins characterized to date. It was purified from the venom of the Subcaucasian subspecies of the Levantine viper—Macrovipera ...

[3] = molecular target: αVβ3 integrin (Homo sapiens) (UniProt P06756); conditions: cited from earlier work
[4] = stated in abstract without reference

UniProt P06756, sequence (P06756 31-1048, chain 1 of 2): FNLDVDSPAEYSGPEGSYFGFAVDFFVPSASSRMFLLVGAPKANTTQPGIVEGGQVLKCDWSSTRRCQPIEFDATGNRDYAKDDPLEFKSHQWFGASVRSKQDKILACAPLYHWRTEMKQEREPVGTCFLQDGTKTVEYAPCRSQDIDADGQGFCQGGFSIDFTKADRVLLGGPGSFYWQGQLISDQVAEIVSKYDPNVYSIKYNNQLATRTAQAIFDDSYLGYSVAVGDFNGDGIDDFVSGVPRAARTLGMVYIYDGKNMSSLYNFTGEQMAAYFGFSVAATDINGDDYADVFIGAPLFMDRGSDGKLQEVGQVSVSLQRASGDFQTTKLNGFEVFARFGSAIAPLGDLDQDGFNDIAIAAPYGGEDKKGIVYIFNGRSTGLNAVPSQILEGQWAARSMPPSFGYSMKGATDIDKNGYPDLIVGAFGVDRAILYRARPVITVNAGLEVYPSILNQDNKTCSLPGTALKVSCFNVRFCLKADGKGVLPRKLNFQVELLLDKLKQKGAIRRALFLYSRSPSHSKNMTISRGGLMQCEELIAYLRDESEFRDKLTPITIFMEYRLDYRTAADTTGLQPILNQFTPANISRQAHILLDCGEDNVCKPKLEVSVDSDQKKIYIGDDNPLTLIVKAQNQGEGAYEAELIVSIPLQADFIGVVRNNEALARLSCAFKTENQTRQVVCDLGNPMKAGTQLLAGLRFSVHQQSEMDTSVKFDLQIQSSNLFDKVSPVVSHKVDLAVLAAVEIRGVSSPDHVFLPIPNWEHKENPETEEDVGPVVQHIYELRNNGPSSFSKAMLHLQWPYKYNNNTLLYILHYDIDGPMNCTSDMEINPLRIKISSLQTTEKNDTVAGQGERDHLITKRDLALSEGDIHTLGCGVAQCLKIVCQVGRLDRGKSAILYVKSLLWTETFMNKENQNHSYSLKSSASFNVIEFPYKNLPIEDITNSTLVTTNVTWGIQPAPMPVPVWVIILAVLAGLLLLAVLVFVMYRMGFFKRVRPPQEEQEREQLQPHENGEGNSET
UniProt P06756, sequence (P05106 27-788, chain 2 of 2, further chain): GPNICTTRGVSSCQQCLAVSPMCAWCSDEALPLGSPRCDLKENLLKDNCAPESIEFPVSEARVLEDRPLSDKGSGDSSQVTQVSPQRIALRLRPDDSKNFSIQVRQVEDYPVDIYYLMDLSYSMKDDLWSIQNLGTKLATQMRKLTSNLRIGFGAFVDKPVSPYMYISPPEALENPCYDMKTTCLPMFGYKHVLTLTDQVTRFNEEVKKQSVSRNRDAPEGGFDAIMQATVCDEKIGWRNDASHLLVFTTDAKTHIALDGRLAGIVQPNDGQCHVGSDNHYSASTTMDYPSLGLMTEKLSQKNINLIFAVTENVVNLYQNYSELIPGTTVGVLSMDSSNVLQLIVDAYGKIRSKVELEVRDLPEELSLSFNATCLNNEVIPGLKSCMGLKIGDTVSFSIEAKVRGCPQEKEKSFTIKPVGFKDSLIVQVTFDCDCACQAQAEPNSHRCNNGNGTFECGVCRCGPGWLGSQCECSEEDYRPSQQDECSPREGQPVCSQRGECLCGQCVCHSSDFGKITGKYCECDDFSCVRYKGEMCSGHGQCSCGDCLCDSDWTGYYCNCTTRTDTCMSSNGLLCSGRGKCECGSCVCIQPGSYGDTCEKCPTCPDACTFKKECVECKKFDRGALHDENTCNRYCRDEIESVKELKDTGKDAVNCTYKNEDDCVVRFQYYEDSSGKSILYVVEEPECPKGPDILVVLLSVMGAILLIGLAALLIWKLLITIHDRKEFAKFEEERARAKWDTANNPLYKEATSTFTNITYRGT

In the case of “CTTGPCCRQCKLKPAGTTCW-----KTS--LTSHYCTGKSCDCPLYPG (disulfide) [Obtustatin]”, the Kd [1] is reported as 0.232 µM, the kon [1] is reported as “(5.34 ± 0.9) × 10^3 M^−1 s^−1” and the koff [1] is reported as “(1.238 ± 0.8) × 10^−3 s^−1”. For the same substance, the “KD (range in words)” value [1] was “mid-nanomolar range”, the “specificity of binding to erythrocyte ghost membrane” value [1] was “specific molecular recognition for both disintegrins, but the higher response for obtustatin; also recorded: specific binding of the obtustatin with the erythrocyte ghost membrane in the 1:1 binding mode” and the “phase response on erythrocyte ghosts vs. unspecific binding to GUVs” value [1] was “the highest difference is observable”. The “α1β1 integrin blockade, selectivity” value (α1β1 integrin; ref [17],[18],[19]) was “block α1β1 integrin in a highly selective manner” and the “α1β1 integrin inhibition” value (α1β1 integrin; [4]) was “potent, irreversible, and selective inhibitors”.
For “ECESGPCCRNCKFLKEGTICKR—ARGD-DMDDYCNGKTCDCPRNPHKGPAT (disulfide) [Echistatin]”, the Kd [1] was 2.1 µM, the kon [1] was “(4.22 ± 0.002) × 10^2 M^−1 s^−1” and the koff [1] was “(8.85 ± 0.03) × 10^−4 s^−1”. The “KD (range in words)” value [1] was “low micromolar range”, the “specificity of binding to erythrocyte ghost membrane” value [1] was “could be evidence of some unspecific binding” and the “phase response on erythrocyte ghosts vs. unspecific binding to GUVs” value [1] was “remarkably lower”. For the same substance, the “αVβ3 integrin antagonism” value (αVβ3 integrin; ref [20],[21],[22]) was “potent irreversible αVβ3 integrin antagonist”, the “αvβ3 integrin inhibition” value (αVβ3 integrin; [4]) was “potent, irreversible, and selective inhibitors” and the “inhibition of platelet aggregation and cellular adhesion” value [2] was “highly effective inhibitor of platelet aggregation and cellular adhesion”.
In the case of echistatin (from UniProt P17347), the Ki [3] is given as 0.00027 µM.
